What was measured:
[1] = log P determination by HPLC on reversed-phase columns (C 18), acidic range; assay type: physicochemical; conditions: for chromatographic logP: pH 2.7, LOGP (HCOOH)
Description: The log P values reported in the table above and in the Preparation Examples were determined in accordance with EEC Directive 79/831 Annex V.A8 by HPLC (High Performance Liquid Chromatography) on reversed-phase columns (C 18), with the following methods:
The LC-MS determination in the acidic range is effected at pH 2.7 using 0.1% aqueous formic acid and acetonitrile (contains 0.1% formic acid) as eluents, linear gradient from 10% acetonitrile to 95% acetonitrile
The calibration was effected with unbranched alkan-2-ones (having 3 to 16 carbon atoms) with known log P values (log P values determined on the basis of the retention times by linear interpolation between two successive alkanones).

[2] = test system: green peach aphid (Myzus persicae); experiment: Myzus test (MYZUPE spray treatment); assay type: in vivo; conditions: in Brassica rapa, foliar, 144 h, read-out: efficacy in % (aphids killed)
Description: Myzus Test (MYZUPE Spray Treatment)
Solvent: 78 parts by weight of acetone 1.5 parts by weight of dimethylformamide
(§1) Emulsifier: 0.5 part by weight of alkylaryl polyglycol ether
(§2) To produce an appropriate active ingredient formulation, 1 part by weight of active ingredient is mixed with the stated amounts of solvent and emulsifier, and the concentrate is diluted with emulsifier-containing water to the desired concentration.
Leaf discs of Chinese cabbage (Brassica pekinensis) infested by all stages of the green peach aphid (Myzus persicae) are sprayed with an active ingredient formulation of the desired concentration.
After 6 days, the efficacy in % is determined 100% means that all aphids have been killed; 0% means that no aphids have been killed.

[3] = test system: larvae of the mustard beetle (Phaedon cochleariae); experiment: Phaedon test (PHAECO spray treatment), Use Example 2; assay type: in vivo; conditions: in Brassica rapa, foliar, 168 h, read-out: efficacy in % (beetle larvae killed)
Description: (§3) Phaedon Test (PHAECO Spray Treatment)
(§4) Solvent: 78.0 parts by weight of acetone 1.5 parts by weight of dimethylformamide
as §1, §2
Leaf discs of Chinese cabbage (Brassica pekinensis) are sprayed with an active ingredient formulation of the desired concentration and, after drying, populated with larvae of the mustard beetle (Phaedon cochleariae).
After 7 days, the efficacy in % is determined 100% means that all beetle larvae have been killed; 0% means that no beetle larvae have been killed.

[4] = test system: caterpillars of the armyworm (Spodoptera frugiperda); experiment: Spodoptera frugiperda test (SPODFR spray treatment); assay type: in vivo; conditions: for pest or weed control at 100 g/ha: Spodoptera frugiperda, in Zea mays, foliar, 168 h, read-out: efficacy in % (caterpillars killed)
Description: Spodoptera frugiperda Test (SPODFR Spray Treatment)
as §4, §1, §2
Leaf discs of maize (Zea mays) are sprayed with an active ingredient formulation of the desired concentration and, after drying, populated with caterpillars of the armyworm (Spodoptera frugiperda).
After 7 days, the efficacy in % is determined 100% means that all caterpillars have been killed; 0% means that no caterpillars have been killed.

[5] = test system: larvae of the mustard beetle (Phaedon cochleariae); experiment: Phaedon test (PHAECO spray treatment), Use Example 6, comparison with prior art; assay type: in vivo; conditions: 168 h, 7 d
Description: as §3
Solvent: 78.0 parts by weight of acetone
1.5 parts by weight of dimethylformamide
as §1
To produce an appropriate active ingredient formulation, 1 part by weight of active ingredient is mixed with the stated amounts of solvent and emulsifier, and the concentrate is diluted with emulsifier-containing water to the desired concentration. Leaf discs of Chinese cabbage (Brassica pekinensis) are sprayed with an active ingredient formulation of the desired concentration and, after drying, populated with larvae of the mustard beetle (Phaedon cochleariae).
After the desired period of time, the effect in % is determined. 100% means that all beetle larvae have been killed; 0% means that no beetle larvae have been killed.

[6] = test system: Lucilia cuprina 1st instar larvae; experiment: Lucilia cuprina test (LUCICU); assay type: in vivo; conditions: 100 ppm, treated horsemeat, after 48 h
Description: Lucilia cuprina Test (LUCICU)
Species: Lucilia cuprina 1st larval stage (age: 24 hours)
(§5) Solvent: dimethyl sulphoxide
(§6) To prepare an appropriate active ingredient formulation, 10 mg of active ingredient are mixed with 0.5 ml of dimethyl sulphoxide and the concentrate is diluted with water to the desired concentration.
Vessels containing 1 cm^3 of horsemeat which had been treated with the active ingredient formulation are populated with about 20 Lucilia cuprina 1st instar larvae.
After 48 h, the kill in % is determined 100% means that all larvae have been killed; 0% means that no larvae have been killed.

adult Musca domestica = experiment: Musca domestica test (MUSCDO); assay type: in vivo; conditions: 100 ppm, treated sponge, after 2 days
Description: Musca domestica Test (MUSCDO)
as §5, §6
Vessels containing a sponge treated with the active ingredient preparation of the desired concentration are populated with 10 adult Musca domestica.
After 2 days, the kill in % is determined 100% means that all flies have been killed; 0% means that no flies have been killed.

Question: For `CNC(=O)c1cc(C(N)=S)cc(C)c1NC(=O)c1cc(Cn2nnc(C(F)(F)F)n2)nn1-c1ncccc1Cl` [Compound 23], which chromatographic logP [1] is on record?
Answer: Its chromatographic logP is 2.26.

Question: And the pest or weed control at 100 g/ha [2]?
Answer: Its pest or weed control at 100 g/ha is 100%.

Question: And the pest or weed control at 100 g/ha [3]?
Answer: Its pest or weed control at 100 g/ha is 100%.

Question: And the pest or weed control at 100 g/ha [4]?
Answer: Its pest or weed control at 100 g/ha is 100%.

Question: What about the larval mortality at 20 g/ha [5] of the same molecule?
Answer: Its larval mortality at 20 g/ha is 100%.

Question: With `C/C(=N\O)c1cc(C)c(NC(=O)c2cc(Cn3nnc(C(F)(F)F)n3)nn2-c2ncccc2Cl)c(C(=O)NC(C)(C)C)c1` [Compound 7] as the molecule, how does the chromatographic logP [1] read?
Answer: Its chromatographic logP is 3.

Question: And the pest or weed control at 100 g/ha [2]?
Answer: Its pest or weed control at 100 g/ha is 100%.

Question: And the pest or weed control at 100 g/ha [4]?
Answer: The pest or weed control at 100 g/ha was 100%.

Question: What about the “kill in % (larvae killed)” value [6] of the same molecule?
Answer: Its value is 100%.

Question: Which results are given for `COC(=O)c1cc(C)c(NC(=O)c2cc(Cn3nnc(C(F)(F)F)n3)nn2-c2ncccc2Cl)c(C(=O)NC(C)C)c1` [Compound 3]?
Answer: chromatographic logP [1]: 3.21; pest or weed control at 100 g/ha [3]: 100%; pest or weed control at 100 g/ha [4]: 100%; kill in % (larvae killed) [6]: 100%

Question: Which larval mortality at 20 g/ha [5] does the source give for `CNC(=O)c1cc(C)cc(C)c1NC(=O)c1cc(Cn2nnc(C(F)(F)F)n2)nn1-c1ncccc1Cl` [Comparative Example, reference compound] here?
Answer: Its larval mortality at 20 g/ha is 0%.

Question: For `CC(=O)c1cc(C)c(NC(=O)c2cc(Cn3nnc(C(F)(F)F)n3)nn2-c2ncccc2Cl)c(C(=O)NC(C)(C)C)c1` [Compound 6], which chromatographic logP [1] is on record?
Answer: The chromatographic logP was 2.87.

Question: And the “efficacy in % (caterpillars killed)” value ([4]; 100 g/ha, spray on maize leaf discs, after 7 days)?
Answer: Its value is 100%.

Question: And the “kill in % (larvae killed)” value [6]?
Answer: The value was 100%.

Question: What about the “kill in % (flies killed)” value (adult Musca domestica) of the same molecule?
Answer: The value was 90%.

Question: Which “LOGP (HCOOH)” value ([1]; pH 2.7) does the source give for `CC(=O)c1cc(C)c(NC(=O)c2cc(Cn3nnc(C(F)(F)F)n3)nn2-c2ncccc2Cl)c(C(=O)NC(C)(C)C)c1` [Compound 1] here?
Answer: Its value is 3.26.

Question: What about the pest or weed control at 100 g/ha [2] of the same molecule?
Answer: Its pest or weed control at 100 g/ha is 100%.

Question: What about the pest or weed control at 100 g/ha [4] of the same molecule?
Answer: Its pest or weed control at 100 g/ha is 100%.

Question: What about the “kill in % (larvae killed)” value [6] of the same molecule?
Answer: The value was 100%.

Question: And the “kill in % (flies killed)” value (adult Musca domestica)?
Answer: Its value is 100%.

Question: Which chromatographic logP [1] does the source give for `CNC(=O)c1cc(C(=O)OC)cc(C)c1NC(=O)c1cc(Cn2nnc(C(F)(F)F)n2)nn1-c1ncccc1Cl` [Compound 2] here?
Answer: The chromatographic logP was 2.77.

Question: And the pest or weed control at 100 g/ha [2]?
Answer: Its pest or weed control at 100 g/ha is 90%.

Question: What about the pest or weed control at 100 g/ha [3] of the same molecule?
Answer: The pest or weed control at 100 g/ha was 100%.

Question: What about the pest or weed control at 100 g/ha [4] of the same molecule?
Answer: The pest or weed control at 100 g/ha was 100%.

Question: What about the “kill in % (larvae killed)” value [6] of the same molecule?
Answer: The value was 100%.

Question: What about the “kill in % (flies killed)” value (adult Musca domestica) of the same molecule?
Answer: Its value is 90%.

Question: Which chromatographic logP [1] does the source give for `COC(=O)c1cc(C)c(NC(=O)c2cc(Cn3nnc(C(F)(F)F)n3)nn2-c2ncccc2Cl)c(C(N)=O)c1` [Compound 5] here?
Answer: The chromatographic logP was 2.56.

Question: And the pest or weed control at 100 g/ha [2]?
Answer: Its pest or weed control at 100 g/ha is 90%.

Question: And the pest or weed control at 100 g/ha [3]?
Answer: Its pest or weed control at 100 g/ha is 100%.

Question: And the pest or weed control at 100 g/ha [4]?
Answer: The pest or weed control at 100 g/ha was 100%.

Question: And the “kill in % (larvae killed)” value [6]?
Answer: The value was 100%.

Question: Which results are given for `COC(=O)c1cc(C)c(NC(=O)c2cc(Cn3nnc(C(F)(F)F)n3)nn2-c2ncccc2Cl)c(C(=O)NC(C)(C)C)c1` [Compound 4]?
Answer: chromatographic logP [1]: 3.52; pest or weed control at 100 g/ha [3]: 100%; pest or weed control at 100 g/ha [4]: 100%; kill in % (larvae killed) [6]: 100%; kill in % (flies killed) (adult Musca domestica): 100%
